Our source for the IC50 values is ChEMBL document CHEMBL4400584, “Relative Configurational Assignment of 4-Hydroxyprorocentrolide and Prorocentrolide C Isolated from a Benthic Dinoflagellate ( Prorocentrum lima)” (J Nat Prod, 2019).

Type in all cases: functional, cell-based
The test system of one test is HepG2. Put plainly: Cytotoxicity against human HepG2 cells assessed as reduction in cell viability after 48 hrs by MTT assay. The note with it: HepG2, 48 h. (In general: Tetrazolium dyes change colour on reduction, which living cells bring about.)
A further test relates to N2a. Put plainly: Cytotoxicity against mouse Neuro2a cells assessed as reduction in cell viability after 48 hrs by MTT assay.
For another test, the system named is HCT-116. Kind of test: Cytotoxicity against human HCT116 cells assessed as reduction in cell viability after 48 hrs by MTT assay. The note with it: HCT-116, 48 h.

As to `C=C1CCC[C@H]2O[C@H](CC3=C[C@@H]4/C(C)=C/C[C@@H](C)C[C@@H](/C=C(\C)[C@@H](O)[C@@H]5C[C@@H](O)[C@H](O)[C@@H](CC[C@H](O)/C=C/C(C)=C/CCC6=NCC[C@H](C3)[C@@]64C)O5)OC(=O)C[C@@H]3O[C@H]([C@@H](O)[C@H]3O)[C@@H](O)C1)C[C@@H](O)[C@@H]2O`, the IC50 in the test on HepG2, in the test with N2a and in the test with HCT-116 was more than 10 µM each time.
Turning to `C=C1CC/C=C/[C@@H](O)[C@H](O)C[C@H](O)CC2=C[C@@H]3/C(C)=C/C[C@@H](C)C[C@@H](/C=C(\C)[C@@H](O)[C@@H]4C[C@@H](O)[C@H](O)[C@@H](CC[C@H](O)/C=C/C(C)=C/CCC5=NCC[C@H](C2)[C@@]53C)O4)OC(=O)C[C@@H]2O[C@H]([C@@H](O)[C@H]2O)[C@@H](O)C1`, the concentration for half-maximal inhibition (IC50) – broadly, the concentration needed to halve the response being measured – was more than 50 µM with HepG2, 5.2 µM in the test on N2a and 2.2 µM with HCT-116.
